# In US20100144708A1, “HETEROCYCLIC COMPOUNDS CONTAINING NITROGEN ATOMS OR PHARMACEUTICALLY ACCEPTABLE SALTS THEREOF, PROCESS FOR THE PREPARATION THEREOF AND PHARMACEUTICAL COMPOSITION COMPRISING THE SAME FOR TREATMENT OF CANCER” (Korea Research Instititute of Bioscience and Biotechnology, priority 2006, published 2010):
# What was measured:
# Assay type in all cases: cell-based, Human
# PC-3 (prostate cancer) = assay: Test for inhibition of tumor cell growth (SRB), PC-3; conditions: Homo sapiens; 48 hours, SRB staining; read-out: GI50 PC-3 (prostate ancer)
# Method: (§1) Human tumor cell lines, PC-3 (prostate cancer, ATCC, USA), MBA-MB-231 (breast cancer, ATCC, USA), ACHN (kidney cancer, ATCC, USA), and NUGC-3 (gastric cancer, ATCC, USA) were cultured in RPMI 1640 media containing 10% fetal bovine serum (FBS).
# (§2) In order to measure anticancer activity, a suitable concentration of cells in RPMI 1640 media containing 5% fetal bovine serum (about 5×10^4 cells/□) was aliquotted in 96-well plates, and cultured in 5% CO2 at 37° C. On day one after aliquoting the cells, before the cells were treated with the compounds, in order to determine their concentration, 50[…] of 50% trichloroacetic acid was added to each well of time zero (T0) plate, and cells were fixed to determine zero point. The cells treated with the compounds were fixed on each well having 50[…] of 50% trichloroacetic acid after 48 hours. The final concentrations of the test compounds were 0.01, 0.03, 0.1, 0.3, and 1[…]/□. The fixed plate was washed with water and dried, and then 100[…] of 0.4% sulphorhodamine B (SRB) dissolved in 0.1% acetic acid was added to the each well to stain the cells. The plate was allowed to stand for 30 minutes, and then washed with 0.1% acetic acid. Then, the plate was dried at room temperature, and treated with 10 mM tris base (pH 10.5) to dissolve staining reagent. An absorbance measured at 540 nm was calculated as a percentage of the control group, and then the concentration of the compound that inhibited tumor cell growth (GI50(□/□)) by 50% was determined.
# [1] = test system: MBA-MB-231 (breast cancer); assay: Test for inhibition of tumor cell growth (SRB), MBA-MB-231; conditions: Homo sapiens; 48 hours, SRB staining
# Method: as §1, §2
# ACHN (kidney cancer) = assay: Test for inhibition of tumor cell growth (SRB), ACHN; conditions: Homo sapiens, ACHN; 48 hours, SRB staining
# Method: as §1, §2
# NUGC-3 (gastric cancer) = assay: Test for inhibition of tumor cell growth (SRB), NUGC-3; conditions: Homo sapiens, NUGC-3; 48 hours, SRB staining
# Method: as §1, §2
SMILES,GI50 (PC-3 (prostate cancer)) [mg/L],GI50 [1] [mg/L],GI50 (ACHN (kidney cancer)) [mg/L],GI50 (NUGC-3 (gastric cancer)) [mg/L]
"CCCCCCCCCCCCCCS(=O)(=O)N1CC[N+](C)(Cc2ccc(F)cc2)CC1 [Example 71, 1-(4-fluorobenzyl)-1-methyl-4-(tetradecane-1-sulfonyl)piperazin-1-ium bromide]",0.65,1.14,1.42,0.82
"C=CC[N+]1(CC)CCN(S(=O)(=O)CCCCCCCCCCCCCCCCCC)CC1 [Example 72, 1-allyl-1-ethyl-4-(octadecane-1-sulfonyl)piperazin-1-ium bromide]",0.73,1.37,0.71,0.57
"C=CC[N+]1(C)CCN(S(=O)(=O)CCCCCCCCCCCCCCCCCC)CC1 [Example 74, 1-allyl-1-methyl-4-(octadecane-1-sulfonyl)piperazin-1-ium bromide]",1,1.72,1.25,0.85
"CCCCCCCCCCS(=O)(=O)N1CC[N+](C)(C)CC1 [Example 75, 4-(decane-1-sulfonyl)-1,1-dimethyl-piperazin-1-ium iodide]",1.84,> 10,4.45,3.29
"C=CC[N+]1(C)CCN(S(=O)(=O)CCCCCCCCCC)CC1 [Example 77, 1-allyl-4-(decane-1-sulfonyl)-1-methyl-piperazin-1-ium bromide]",0.83,> 10,3.47,1.55
"CCCCCCCCCCS(=O)(=O)N1CC[N+](C)(CC)CC1 [Example 78, 4-(decane-1-sulfonyl)-1-ethyl-1-methyl-piperazin-1-ium iodide]",1.06,> 10,4.15,1.81
"C=CC[N+]1(CC)CCN(S(=O)(=O)CCCCCCCCCC)CC1 [Example 80, 1-allyl-4-(decane-1-sulfonyl)-1-ethyl-piperazin-1-ium bromide]",0.85,> 10,3.07,0.89
"C=CC[N+]1(C)CCN(S(=O)(=O)CCCCCCCCCCCC)CC1 [Example 82, 1-allyl-4-(dodecane-1-sulfonyl)-1-methyl-piperazin-1-ium bromide]",0.71,1.4,0.86,0.75
"CCCCCCCCCCCCS(=O)(=O)N1CC[N+](C)(CC)CC1 [Example 83, 4-(dodecane-1-sulfonyl)-1-ethyl-1-methyl-piperazin-1-ium iodide]",0.61,1.42,0.69,0.45
"C=CC[N+]1(CC)CCN(S(=O)(=O)CCCCCCCCCCCC)CC1 [Example 85, 1-allyl-4-(dodecane-1-sulfonyl)-1-ethyl-piperazin-1-ium bromide]",0.41,1.01,0.53,0.22
"CCCCCCCCCCS(=O)(=O)N1CC[N+](C)(Cc2ccc(F)cc2)CC1 [Example 86, 4-(decane-1-sulfonyl)-1-(4-fluorobenzyl)-1-methyl-piperazin-1-ium bromide]",0.88,4.48,3.79,1.99
"CCCCCCCCCCCCS(=O)(=O)N1CC[N+](C)(Cc2ccc(F)cc2)CC1 [Example 88, 4-(dodecane-1-sulfonyl)-1-(4-fluorobenzyl)-1-methyl-piperazin-1-ium bromide]",0.68,1.59,1.37,0.93
"CCCCCCCCCS(=O)(=O)N1CC[N+](CC)(Cc2cccc([N+](=O)[O-])c2)CC1 [Example 89, 1-ethyl-1-(3-nitrobenzyl)-4-(nonylsulfonyl)piperazin-1-ium bromide]",4.02,> 10,> 10,> 10
"CCCCCCCCCCCCS(=O)(=O)N1CC[N+](C)(Cc2ccc(C)cc2)CC1 [Example 90, 4-(dodecane-1-sulfonyl)-1-methyl-1-(4-methylbenzyl)piperazin-1-ium bromide]",1.57,2.56,3.22,1.98
"CCCCCCCCCCS(=O)(=O)N1CC[N+](CC)(Cc2cccc([N+](=O)[O-])c2)CC1 [Example 91, 4-(decane-1-sulfonyl)-1-ethyl-1-(3-nitrobenzyl)piperazin-1-ium bromide]",0.83,> 10,4.82,1.54
"CCCCCCCCCCCS(=O)(=O)N1CC[N+](CC)(CC)CC1 [Example 92, 1,1-diethyl-4-(undecane-1-sulfonyl)piperazin-1-ium iodide]",0.45,1.62,0.81,0.21
"CCCCCCCCCCCS(=O)(=O)N1CC[N+](C)(CC)CC1 [Example 93, 1-ethyl-1-methyl-4-(undecane-1-sulfonyl)piperazin-1-ium iodide]",0.67,2.71,1.11,0.62
"CCCCCCCCCCCCCCS(=O)(=O)N1CC[N+](CC)(CC)CC1 [Example 94, 1,1-diethyl-4-(tetradecane-1-sulfonyl)piperazin-1-ium iodide]",0.53,0.46,0.31,0.37
"CCCCCCCCCCCCCCS(=O)(=O)N1CC[N+](C)(CC)CC1 [Example 95, 1-ethyl-1-methyl-4-(tetradecane-1-sulfonyl)piperazin-1-ium iodide]",0.35,0.64,0.46,2.24
"CCCCCCCCCCCCCCCCCCS(=O)(=O)N1CC[N+](C)(Cc2ccc(F)cc2)CC1 [Example 96, 1-(4-fluorobenzyl)-1-methyl-4-(octadecane-1-sulfonyl)piperazin-1-ium bromide]",0.48,0.6,3.25,2.73

# Further lines, results first:
GI50 (PC-3 (prostate cancer)) [mg/L],GI50 [1] [mg/L],GI50 (ACHN (kidney cancer)) [mg/L],GI50 (NUGC-3 (gastric cancer)) [mg/L],SMILES
0.71,1.59,1.19,1.05,"CCCCCCCCCCCCCCS(=O)(=O)N1CC[N+](CC)(Cc2ccc(F)cc2)CC1 [Example 68, 1-ethyl-1-(4-fluorobenzyl)-4-(tetradecane-1-sulfonyl)piperazin-1-ium bromide]"
0.49,0.87,1.11,0.53,"CCCCCCCCCCCCCCS(=O)(=O)N1CC[N+](C)(Cc2ccccc2)CC1 [Example 70, 1-benzyl-1-methyl-4-(tetradecane-1-sulfonyl)piperazin-1-ium bromide]"
0.8,1.75,1.87,0.85,"CCCCCCCCCCCCCCCCCCS(=O)(=O)N1CC[N+](CC)(Cc2ccccc2)CC1 [Example 73, 1-benzyl-1-ethyl-4-(octadecane-1-sulfonyl)piperazin-1-ium bromide]"
0.54,4.02,3.5,0.99,"CCCCCCCCCCS(=O)(=O)N1CC[N+](C)(Cc2ccccc2)CC1 [Example 76, 1-benzyl-4-(decane-1-sulfonyl)-1-methyl-piperazin-1-ium bromide]"
0.85,> 10,4.41,1.24,"CCCCCCCCCCS(=O)(=O)N1CC[N+](CC)(Cc2ccccc2)CC1 [Example 79, 1-benzyl-4-(decane-1-sulfonyl)-1-ethyl-piperazin-1-ium bromide]"
0.61,1.49,1.48,0.58,"CCCCCCCCCCCCS(=O)(=O)N1CC[N+](C)(Cc2ccccc2)CC1 [Example 81, 1-benzyl-4-(dodecane-1-sulfonyl)-1-methyl-piperazin-1-ium bromide]"
0.74,1.35,1.12,0.75,"CCCCCCCCCCCCS(=O)(=O)N1CC[N+](CC)(Cc2ccccc2)CC1 [Example 84, 1-benzyl-4-(dodecane-1-sulfonyl)-1-ethyl-piperazin-1-ium bromide]"
1.25,> 10,> 10,1.56,"CCCCCCCCCCS(=O)(=O)N1CC[N+](CC)(Cc2ccc(F)cc2)CC1 [Example 87, 4-(decane-1-sulfonyl)-1-ethyl-1-(4-fluorobenzyl)-piperazin-1-ium bromide]"
0.7,1.43,1.21,0.66,"CCCCCCCCCCCCS(=O)(=O)N1CC[N+](CC)(Cc2ccc(F)cc2)CC1 [Example 97, 4-(dodecane-1-sulfonyl)-1-ethyl-1-(4-fluorobenzyl)piperazin-1-ium bromide]"
0.35,1.01,1.05,0.28,"CCCCCCCCCCCCS(=O)(=O)N1CC[N+](CC)(Cc2cccc([N+](=O)[O-])c2)CC1 [Example 98, 4-(dodecane-1-sulfonyl)-1-ethyl-1-(3-nitrobenzyl)piperazin-1-ium bromide]"
